Experimental data: US20250230138A1, “COMPOUNDS HAVING A T-STRUCTURE FORMED BY AT LEAST FOUR CYCLES FOR USE IN THE TREATMENT OF CANCER AND OTHER INDICATIONS” (TheRas, Inc., priority 2022, published 2025)
Read-outs that look alike come from different tables or passages of the source.

What was measured:
[1] = biological target: Cys242 in human PIK3CA (157-299) (Homo sapiens (Human), UniProt P42336); experiment: Covalent modification assay using MALDI-TOF MS; format: biochemical; conditions: 4 h reaction time point; 3.33 μM protein target, 1:7.5 protein to compound ratio (compounds 1-852)
Chain of Cys242 in human PIK3CA (157-299) (P42336 157-299): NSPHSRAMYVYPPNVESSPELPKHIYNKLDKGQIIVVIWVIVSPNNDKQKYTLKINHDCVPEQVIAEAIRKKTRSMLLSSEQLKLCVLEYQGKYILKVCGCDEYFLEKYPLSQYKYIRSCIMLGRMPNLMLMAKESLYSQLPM
Summary of the method: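 PIK3CA (157-299), 3.33 or 1 μM in 20 mM HEPES, 150 mM NaCl, 2 mM MgCl2, pH 7.3, was incubated with compound at room temperature in the dark for 15 min, 30 min, 2 h or 4 h. Linear MALDI-TOF read-out; % modification = adduct peak height over summed heights of all protein species.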

pAKT in BT474 cells = experiment: Cell-based pAKT HTRF assay in BT474 cells; conditions: BT474 cells, 4 hr incubation, Compounds 10-999, read-out: pAKT inhibition IC50 in BT474 cells
Summary of the method: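 9-pt curve, top 3 μM, 3-fold steps, 0.25% DMSO; 4 hr compound exposure. Lysis, then HTRF with d2/Eu Cryptate antibody pair, 4–24 h RT. Ex 320 nm, Em 615 nm.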

Row | Structure (SMILES) | % of modification [1] | IC50 (pAKT in BT474 cells) [nM] | IC50 (pAKT in BT474 cells; Homo sapiens, BT-474) [nM]
1 | C=CC(=O)N1Cc2cc(-c3nc(-c4ccc5c(c4)CCN(C)C5)c4ccsc4c3-c3c(F)cc(F)cc3OC[C@@H](C)O)nn2[C@@H](C)C1 [Compound 590] | A (percent of modification of PIK3CA protein ≥75%) | < 100 | 
2 | C=CC(=O)N1C[C@H](C)n2nc(-c3nc(-c4ccc5c(c4)CCN(C)C5)c4ccsc4c3-c3c(F)cc(F)cc3OCCOC)cc2[C@@H]1C [Compound 601, 1-[(4S,7S)-2-[7-[2,4-difluoro-6-(2-methoxyethoxy)phenyl]-4-(2-methyl-3,4-dihydro-1H-isoquinolin-6-yl)thieno[3,2-c]pyridin-6-yl]-4,7-dimethyl-6,7-dihydro-4H-pyrazolo[1,5-a]pyrazin-5-yl]prop-2-en-1-one] | A (percent of modification of PIK3CA protein ≥75%) |  | < 100
3 | C=CC(=O)N1C[C@H](C)n2nc(-c3nc(-c4ccc5ncn(C)c5c4)c4ccsc4c3-c3c(F)cc(F)cc3OCCOC)cc2[C@@H]1C [Compound 602] | A (percent of modification of PIK3CA protein ≥75%) | < 100 | 
4 | C=CC(=O)N1C[C@H](C)n2nc(-c3nc(-c4cnn(C)c4)c4ccsc4c3-c3c(F)cc(F)cc3OCCOC)cc2[C@@H]1C [Compound 603] | D (percent of modification <25%) | 1000 to 3000 | 
5 | C=CC(=O)N1C[C@H](C)n2nc(-c3nc(-c4ccc5ncn(C)c5c4)c4ccsc4c3-c3c(F)cc(F)cc3OCCOC)cc2[C@H]1C [Compound 604] | A (percent of modification of PIK3CA protein ≥75%) | < 100 | 
6 | C=CC(=O)N1Cc2cc(-c3nc(-c4ccc5c(c4)CCN(C)C5)c4ccsc4c3-c3c(F)cc(F)cc3OC[C@@H](C)O)nn2C[C@H]1C [Compound 605] | A (percent of modification of PIK3CA protein ≥75%) | < 100 | 
7 | C=CC(=O)N1Cc2cc(-c3nc(-c4ccc5c(c4)CCN(C)C5)c4ccsc4c3-c3c(F)cc(F)cc3OC[C@@H](C)O)nn2C[C@H]1C [Compound 606] | D (percent of modification <25%) | 1000 to 3000 | 
8 | C=CC(=O)N1C[C@H](C)n2nc(-c3nc(-c4cnn(C)c4)c4ccsc4c3-c3c(F)cc(F)cc3OCCOC)cc2[C@@H]1C [Compound 607] | A (percent of modification of PIK3CA protein ≥75%) | < 100 | 
9 | C=CC(=O)N1Cc2cc(-c3nc(-c4ccc5c(cnn5C)c4)c4ccsc4c3-c3c(F)cc(F)cc3OC[C@@H](C)O)nn2[C@@H](C)C1 [Compound 608] | D (percent of modification <25%) | 100 to 1000 | 
10 | C=CC(=O)N1Cc2cc(-c3nc(-c4ccc5c(cnn5C)c4)c4ccsc4c3-c3c(F)cc(F)cc3OC[C@@H](C)O)nn2[C@@H](C)C1 [Compound 609] | A (percent of modification of PIK3CA protein ≥75%) | < 100 | 
11 | C=CC(=O)N1Cc2cc(-c3nc(-c4ccc5ncn(C)c5c4)c4ccsc4c3-c3c(F)cc(F)cc3O[C@H](C)CO)nn2C[C@H]1C [Compound 611] | D (percent of modification <25%) | 100 to 1000 | 
12 | C=CC(=O)N1CCn2nc(-c3nc(-c4ccc5c(c4)CNC5=O)c4ccsc4c3-c3c(F)cc(F)cc3OCCOC)cc2[C@H]1C [Compound 617, 5-((S)-6-((R)-5-acryloyl-4-methyl-4,5,6,7-tetrahydropyrazolo[1,5-a]pyrazin-2-yl)-7-(2,4-difluoro-6-(2-methoxyethoxy)phenyl)thieno[3,2-c]pyridin-4-yl)isoindolin-1-one] | A (percent of modification of PIK3CA protein ≥75%) | < 100 | 
13 | C=CC(=O)N1Cc2cc(-c3nc(-c4cnnc(C)c4)c4ccsc4c3-c3c(F)cc(F)cc3OCCOC)nn2C[C@H]1C [Compound 633] | D (percent of modification <25%) | 1000 to 3000 | 
14 | C=CC(=O)N1Cc2cc(-c3nc(-c4ccc5c(c4)CCN(C)C5)c4ccsc4c3-c3c(F)cc(F)cc3OC(CF)CF)nn2C[C@H]1C [Compound 634, 1-[(6R)-2-[7-[2,4-difluoro-6-[2-fluoro-1-(fluoromethyl)ethoxy]phenyl]-4-(2-methyl-3,4-dihydro-1H-isoquinolin-6-yl)thieno[3,2-c]pyridin-6-yl]-6-methyl-6,7-dihydro-4H-pyrazolo[1,5-a]pyrazin-5-yl]prop-2-en-1-one] | A (percent of modification of PIK3CA protein ≥75%) |  | < 100
15 | C=CC(=O)N1Cc2cc(-c3nc(-c4cn(C)cn4)c4ccsc4c3-c3c(F)cc(F)cc3OCC(C)O)nn2C(C)C1 (stereo not drawn) [Compound 639] | A (percent of modification of PIK3CA protein ≥75%) | < 100 | 
16 | C=CC(=O)N1CCn2nc(-c3nc(-c4cnn(C)c4)c4ccsc4c3-c3c(F)cc(F)cc3OCCO)cc2[C@@H]1C [Compound 640] | A (percent of modification of PIK3CA protein ≥75%) | < 100 | 
17 | C=CC(=O)N1CCn2nc(-c3nc(-c4cnn(C)c4)c4ccsc4c3-c3c(F)cc(F)cc3OCCO)cc2[C@H]1C [Compound 641] | C (25%≤percent of modification <50%) | 100 to 1000 | 
18 | C=CC(=O)N1Cc2cc(-c3nc(-c4ccc5nncn5c4)c4ccsc4c3-c3c(F)cc(F)cc3OCC(C)O)nn2C(C)C1 (stereo not drawn) [Compound 643] | A (percent of modification of PIK3CA protein ≥75%) | < 100 | 
19 | C=CC(=O)N1CCn2nc(-c3nc(-c4ccc5nn(C)cc5c4)c4ccsc4c3-c3c(F)cc(F)cc3OCCO)cc2[C@@H]1C [Compound 644] | A (percent of modification of PIK3CA protein ≥75%) | < 100 | 
20 | C=CC(=O)N1CCn2nc(-c3nc(-c4ccc5ncn(C)c5c4)c4ccsc4c3-c3c(F)cc(F)cc3OCCO)cc2[C@@H]1C [Compound 645] | A (percent of modification of PIK3CA protein ≥75%) | < 100 | 
21 | C=CC(=O)N1CCn2nc(-c3nc(-c4ccc5nn(C)cc5c4)c4ccsc4c3-c3c(F)cc(F)cc3OC[C@@H](C)O)cc2[C@@H]1C [Compound 646] | A (percent of modification of PIK3CA protein ≥75%) | < 100 | 
22 | C=CC(=O)N1CCn2nc(-c3nc(-c4ccc5ncn(C)c5c4)c4ccsc4c3-c3c(F)cc(F)cc3OC[C@@H](C)O)cc2[C@@H]1C [Compound 647] | A (percent of modification of PIK3CA protein ≥75%) | < 100 | 
23 | C=CC(=O)N1CCn2nc(-c3nc(-c4cnn(C)c4)c4ccsc4c3-c3c(F)cc(F)cc3OCCOC)cc2[C@@H]1C [Compound 649] | A (percent of modification of PIK3CA protein ≥75%) | < 100 | 
24 | C=CC(=O)N1CCn2nc(-c3nc(-c4ccc5nn(C)cc5c4)c4ccsc4c3-c3c(F)cc(F)cc3OCCO)cc2[C@H]1C [Compound 650] | C (25%≤percent of modification <50%) | < 100 | 
25 | C=CC(=O)N1CCn2nc(-c3nc(-c4ccc5c(c4)ncn5C)c4ccsc4c3-c3c(F)cc(F)cc3OCCO)cc2[C@H]1C [Compound 651] | C (25%≤percent of modification <50%) | < 100 | 
26 | C=CC(=O)N1CCn2nc(-c3nc(-c4ccc5c(cnn5C)c4)c4ccsc4c3-c3c(F)cc(F)cc3OCCO)cc2[C@H]1C [Compound 652] | C (25%≤percent of modification <50%) | < 100 | 
27 | C=CC(=O)N1CCn2nc(-c3nc(-c4ccc5ncn(C)c5c4)c4ccsc4c3-c3c(F)cc(F)cc3OCCO)cc2[C@H]1C [Compound 653] | B (50%<percent of modification <75%) | < 100 | 
